{"source": "paper PMC12164272", "about": "“Ruthenium(II) Polypyridyl Complexes Containing COUBPY Ligands as Potent Photosensitizers for the Efficient Phototherapy of Hypoxic Tumors” (Journal of the American Chemical Society, 2025)", "key": {"[1]": {"settings": "cited from earlier work"}, "CT-26 cancer cells": {"tested_on": "CT-26 cancer cells", "test": "(Photo)cytotoxicity in 2D monolayer cells under normoxia (21% O2), resazurin assay", "type": "cell-based, murine", "settings": "for Phototherapeutic index (PI) = IC50(dark)/IC50(light): normoxia; for IC50: Mus musculus", "experimental": "To that end, cells were incubated for 4 h with increasing concentrations of the compounds, and after refreshing the medium, they were either illuminated or kept in the dark. […] The phototoxic index (PI), defined as the ratio of dark to light IC50 values, was used to quantify the phototherapeutic efficiency of the tested compounds. […] Using a well-by-well monochromatic LED device, cells were irradiated with green (540 nm, 40 min), yellow (595 nm, 1 h), red (620 nm, 1 h), deep-red (645 nm, 1 h), far-red (670 nm, 1 h), or NIR (740 nm, 1 h) light, with fluences ranging from 3.4 J/cm^2 (595 nm) to 13.5 J/cm^2 (670 nm).\nIn vitro (photo)cytotoxicity determination of Ru-COUBPY PSs\nCT-26 cells were cultured in Dulbecco’s modified Eagle medium (DMEM) (Gibco)\nsupplemented with 10% fetal calf serum (Gibco) and 2 mM L-glutamine.\nthe corresponding culture medium was supplemented with 100 U·mL−1 penicillin streptomycin\nmixture (Gibco) and cells were maintained in a humidified atmosphere at 37 °C and 5 % of\n(Photo)cytotoxicity evaluation in 2D monolayer cells under normoxia (21% O2)\nThe (photo)cytotoxicity of the test compounds under normoxia (21% O2) was assessed by a\nfluorometric cell viability assay using Resazurin (Acros Organics). CT-26 cells were seeded in\ntriplicate in 96-well plates at a density of 4000 cells/well in complete medium in a final volume\nof 100 μL/well. After 24 h, cells were treated with increasing concentrations of the test\ncompounds using serial dilutions of the test compounds in complete culture medium (DMSO\n≤1 %) at final concentrations in the range of 0 to 250 μM (100 μL/well), followed by a 4-h\nincubation at 37 °C, 5% CO2 in the dark. The medium containing the PS was then replaced with\nfresh medium (100 μL/well) and plates were irradiated for 1 h at 37 °C, 0 % CO2 with 540 nm\n(spectral half-width: 32 nm, 40 min, 3.75 mW cm−2, 9.0 J cm−2), 595 nm (spectral half-width:\nmW cm−2, 6.7 J cm−2), 645 nm (spectral half-width: 32 nm, 60 min, 2.50 mW cm−2, 9.0 J cm−2),\n670 nm (spectral half-width: 32 nm, 60 min, 3.75 mW cm−2, 13.5 J cm−2) or 740 nm (spectral\nhalf-width: 32 nm, 60 min, 3.50 mW cm−2, 12.6 J cm−2) light using a LED multi-well plate\nphoto-irradiation system (Atlas Photonics Lumos Bio). To evaluate the cytotoxicity of the test\ncompounds in the dark, three additional plates of treated cells were kept in the dark for 1 h at\n37 °C, 0 % CO2. Cells were then kept in the incubator (37 °C, 5 % CO2) over a recovery period\nof 44 h. Next, the medium was replaced with complete medium containing Resazurin (0.2\nmg/mL, 100 μL/well), followed by a 4-h incubation at 37 °C, 5 % CO2. Finally, the fluorescence\nsignal of the Resorufin product was measured (ex = 540 nm, em = 590 nm) using a Infinite\n200 PRO Microplate Reader from TECAN. IC50 values were then calculated based on the\ninhibitory rate curves using the following equation (6)\nwhere I represent the percentage inhibition of viability observed, Imax is the maximal inhibitory\neffect, IC50 is the concentration that inhibits 50% of maximal growth, C is the concentration of\nthe treatment and n is the slope of the semi-logarithmic dose-response sigmoidal curves. The\nnon-linear fitting was performed using GraphPad Prism software. All experiments were\nperformed in three independent studies with triplicate points per concentration level."}}, "note": "Like-named read-outs stand apart in the source and are kept apart here.", "data": [{"smiles": "[Cl][Ru][Cl].c1ccc(-c2ccccn2)nc1.c1ccc(-c2ccccn2)nc1.c1ccc(-c2ccccn2)nc1", "note": "[[Ru(bpy)3]Cl2]", "values": [{"measurement": "reference singlet oxygen quantum yield ΦΔ,ref", "setting": "[1]; aerated CH3CN", "result": 0.57}]}, {"smiles": "CN(C)c1ccc2nc3ccc(=[N+](C)C)cc-3sc2c1", "note": "[methylene blue]", "values": [{"measurement": "reference singlet oxygen quantum yield ΦΔ,ref", "setting": "[1]; aerated DCM", "result": 0.57}]}, {"smiles": "C=CC1=C(C)c2cc3[nH]c(cc4nc(cc5[nH]c(cc1n2)c(C)c5CCC(=O)O)C(CCC(=O)O)=C4C)c(C)c3C=C", "note": "[PpIX, Protoporphyrin IX]", "values": [{"measurement": "Phototherapeutic index (PI) = IC50(dark)/IC50(light)", "setting": "CT-26 cancer cells; 540 nm", "result": ">312"}, {"measurement": "Phototherapeutic index (PI) = IC50(dark)/IC50(light)", "setting": "CT-26 cancer cells; 595 nm", "result": ">250"}, {"measurement": "Phototherapeutic index (PI) = IC50(dark)/IC50(light)", "setting": "CT-26 cancer cells; 620 nm", "result": ">151"}, {"measurement": "Phototherapeutic index (PI) = IC50(dark)/IC50(light)", "setting": "CT-26 cancer cells; 645 nm", "result": ">588"}, {"measurement": "Phototherapeutic index (PI) = IC50(dark)/IC50(light)", "setting": "CT-26 cancer cells; 670 nm", "result": ">129"}, {"measurement": "Phototherapeutic index (PI) = IC50(dark)/IC50(light)", "setting": "CT-26 cancer cells; 740 nm", "result": ">50"}, {"measurement": "IC50", "setting": "CT-26 cancer cells; CT26, 540 nm, 9.0 J cm–2, normoxia 21% O2", "result": "320 ± 90", "unit": "nM"}, {"measurement": "IC50", "setting": "CT-26 cancer cells; CT26, 595 nm, 3.4 J cm–2, normoxia 21% O2", "result": "400 ± 10", "unit": "nM"}, {"measurement": "IC50", "setting": "CT-26 cancer cells; CT26, 620 nm, 6.7 J cm–2, normoxia 21% O2", "result": "660 ± 210", "unit": "nM"}, {"measurement": "IC50", "setting": "CT-26 cancer cells; CT26, 645 nm, 9.0 J cm–2, normoxia 21% O2", "result": "170 ± 210", "unit": "nM"}, {"measurement": "IC50", "setting": "CT-26 cancer cells; CT26, 670 nm, 13.5 J cm–2, normoxia 21% O2", "result": "770 ± 200", "unit": "nM"}, {"measurement": "IC50", "setting": "CT-26 cancer cells; CT26, 740 nm, 12.6 J cm–2, normoxia 21% O2", "result": "2100 ± 200", "unit": "nM"}, {"measurement": "IC50", "setting": "CT-26 cancer cells; CT26, 4 h, dark, normoxia 21% O2, 4 h incubation", "result": "> 100000", "unit": "nM"}]}]}
